Test results: US20240226232A9, “PROTEIN-BASED THERAPIES FOR OCULAR CONDITIONS” (The Regents of the University of Colorado, A Body Corporate, priority 2021, published 2024)

Tests used:
RGCs [1] = test: Silicone oil mouse model of ocular hypertension, Brn3a-positive RGC count after intravitreal peptide; assay type: in vivo, mice; conditions: single 1 μg intravitreal dose, day 28
Text: The second ocular hypertension model was generated by anesthetizing mice via intraperitoneal injection of ketamine/xylazine supplemented with topical application of 0.5% proparacaine hydrochloride. A 33G needle was tunneled through the cornea of each tested eye at the superotemporal side close to the limbus to reach the anterior chamber without injuring the lens or iris. […] After the injection, the upper eyelid was gently massaged to close the corneal incision and minimize oil leakage, and veterinary antibiotic ointment was applied to the surface of the injected eye to prevent infection.
After two weeks, the silicone oil droplet was removed. […] Veterinary antibiotic ointment was applied to the surface of the eye after oil removal.
The intraocular pressure of each eye was monitored once weekly until four weeks after silicone oil injection using a tonometer under anesthesia with a sustained flow of isoflurane (5% isoflurane at 2 L/minute mixed with oxygen). Two weeks after oil removal (day 28), retinas were removed and immunostained with Brn3a and βIII-tubulin antibodies to visualize and count the surviving RGCs.

RGCs [2] = test: Microbead mouse model of ocular hypertension, Brn3a-positive RGC count and βIII-tubulin staining after intravitreal peptide; assay type: in vivo, mice; conditions: 1 μg intravitreal once weekly for three weeks; for RGCs per mm^2 in retina after six weeks: control almost 3,400, vehicle less than 2,300
Protocol: The first ocular hypertension model was generated by initially anesthetizing mice via intraperitoneal injection of ketamine/xylazine supplemented with a topical application of 0.5% proparacaine hydrochloride. […] The cornea was gently punctured near the center using a 33G needle, and a small air bubble was injected to lift the anterior chamber of the eye. […] An antibiotic ointment was applied topically on the injected eye to prevent infection.
The intraocular pressure was measured weekly for six weeks using a tonometer. In particular, the mice were placed in an anesthetic chamber filled with a sustained flow of isoflurane (5% isoflurane at 2 L/minute mixed with oxygen). The tonometer took five measurements for each weekly check-in, eliminated the high and low readings, and generated an average intraocular pressure from the remaining readings for each mouse.
After six weeks of microbead injection, the eyes were dissected out and post-fixed with 4% PFA overnight at 4° C. The retinas were subsequently dissected out and washed three times in PBS before blocking (5% normal donkey serum and 1% Triton X-100 in PBS) overnight. Whole-mount retinas were then immunostained for Brn3a and βIII-tubulin (1:500 dilution), which are markers for RGCs and axonal cells, respectively. The retinas were then stained with Alexa Fluor 488 donkey anti-mouse or Texas red-conjugated goat anti-rabbit IgG (1:250 dilution). Four image fields from each retinal region were obtained using a 20× lens with a Zeiss confocal. The Brn3a-positive RGC numbers were counted (cells/mm^2) in the mid-peripheral regions from four quadrants of the whole-mounted retina using the ImageJ software (NIH). Contralateral uninjured eyes were used as a control.

[3] = tested on: Human retinal endothelial cells (HRECs); test: Pro-inflammatory cytokine-mediated apoptosis of HRECs, cleaved caspase-3 Western blot; assay type: cell-based; conditions: 200 μg/mL peptide for three hours, then cytokine mixture (CM) 48 hours, CM only approx. 1:1
Protocol: The sequence of the first scrambled control peptide was […] (SEQ ID NO: 4), and the sequence of the second scrambled control peptide was […] (SEQ ID NO: 5). All test cells were then treated with a combination of pro-inflammatory cytokines (IFN-γ at 50 U/mL+TNF-α at 20 ng/mL+IL-1β at 20 ng/mL) for 48 hours.
Cell lysates were prepared using 1×RIPA buffer containing a protease inhibitor cocktail. Protein concentrations of the cell lysates were measured using the BCA method, and 25 μg of protein were used for immunoblotting. To measure HREC apoptosis, the cells were immunostained for active (cleaved) caspase-3, specifically, which is a marker for apoptosis. β-actin antibody staining was used as a control for measuring levels of a housekeeping protein and for calculating protein density compared to caspase-3 levels.

retinal capillary cells = test: I/R injury mouse model, acellular retinal capillary count; assay type: in vivo, C57BL/6J mice; conditions: 0.5 μg intravitreal immediately after I/R injury and again after one week; day 14
Protocol: This ocular hypertension model was generated by initially anesthetizing 12-week-old C57BL/6J mice via intraperitoneal injection of ketamine/xylazine supplemented with a topical application of 0.5% proparacaine hydrochloride. To perform the I/R injury, the right eye was cannulated into the anterior chamber with a 33-gauge needle connected to an elevated pouch containing 250 ml of 0.9% NaCl solution. […] The PBS-injected eyes were used as vehicle controls. The contralateral eyes were used as additional controls.
After careful removal of the internal limiting membrane (ILM), retinas were placed in 12-well plates with Tris-HCl buffer at a pH of 7.8, and then shaken overnight to loosen the remaining RGCs. The retinas were then transferred to glass microscopy slides and the remaining neuronal tissues carefully dislodged through gentle agitation produced by a 20-μL pipette in Tris-HCl. Periodic acid Schiff (PAS) stain was used to visualize the isolated retinal capillary layer. An inverted fluorescence microscope was used to image the mounted capillaries, and the acellular capillaries from each treatment group were counted and analyzed.

TNF-α = test: I/R injury mouse model, retinal cytokine mRNA by quantitative real-time PCR; assay type: in vivo, mice; conditions: two days after I/R injury; 0.5 μg intravitreal
Protocol: (§1) To measure pro-inflammatory cytokine levels, mice were sacrificed, and retinas were dissected two days after I/R injury. Total RNA was then lysed from the retinas, two micrograms of RNA was reverse-transcribed to synthesize cDNA, and quantitative real-time PCR was performed. The sequences of the PCR primers were as follows: TNF-α forward primer—5′-[…]-3′ and reverse primer—[…]-3′; IL-1β forward primer—5′-5′-[…]-3′ and reverse primer—5′-[…]-3; IFN-γ forward primer—5′-[…]-3′ and reverse primer—5′-[…]-3′. The mRNA levels were analyzed using the comparative Ct method (2-ΔΔCT) and then normalized to β-actin (forward primer—5′-[…]-3′ and reverse primer—5′-[…]-3′).

IL-1β = test: as above; assay type: in vivo, mice; conditions: two days after I/R injury; 0.5 μg intravitreal
Protocol: as §1

Row | Substance | RGC death reduced by (compared to PBS-treated control 206) (RGCs [1]) | axonal degeneration (βIII-tubulin immunostaining) (RGCs [2]) | reduction in RGC death (compared to vehicle control group) (RGCs [2]) | RGCs per mm^2 in retina after six weeks (RGCs [2]) | density ratio of cleaved caspase-3 to β-actin [3] | number of acellular capillaries per retina (retinal capillary cells) | reduction of the increase in TNF-α expression compared to the vehicle group (TNF-α) | reduction of the increase in IL-1β expression compared to the vehicle group (IL-1β)
1 | G^73HFSVLLDVK(acetyl)HFSPEEIAVK^91 [peptain-3a] | 14.2% | inhibited axonal degeneration | 12% | about 3,000 RGCs per mm^2 |  |  |  | 
2 | DRFSVNLDVKHFSPEELKVKV [peptain-1] | 15.7% | inhibited axonal degeneration | 4% | over 3,200 RGCs per mm^2 | ~0.5 | lower number of per-retina acellular capillaries | 6.2 fold | 4.6 fold
3 | FEPSVRFSKVDHLVKENDLVK [Scr-2] |  |  |  |  | greater density ratio |  |  | 
4 | SLKEKRNFDVSEVKHVLFVDP [Scr-1] |  |  |  |  | greater density ratio |  |  | 
